Experimental data taken from ChEMBL document CHEMBL1201862, “PubChem BioAssay data set” (2004).
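Step 1: Grow cells in 96-well plates. Step 2: Expose to compound for 48 hours at 5 concentrations. Step 3: Interpolate endpoints linearly; if unreached, use highest concentration. GI50 = concentration required for 50% inhibition of growth.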 Calls of active or inactive are those of the source. Cut-off read from the data, not from the text of the source: active = GI50 up to about 1.1 µM and inactive = higher.

How the values were obtained:
Test in all cases: NCI-60 cell line screen, 48 h
HCT-116 = system: HCT-116
RXF 393 = system: RXF 393
Hs-578T = system: Hs-578T
PC-3 = system: PC-3
UACC-257 = system: UACC-257
ACHN = system: ACHN
HL-60 = system: HL-60
SK-MEL-5 = system: SK-MEL-5
BT-549 = system: BT-549
LOX IMVI = system: LOX IMVI
T47D = system: T47D
DU-145 = system: DU-145
Malme-3M = system: Malme-3M
KM12 = system: KM12
UO-31 = system: UO-31
NCI-H460 = system: NCI-H460
HT-29 = system: HT-29
NCI-H522 = system: NCI-H522
MOLT-4 = system: MOLT-4
SK-OV-3 = system: SK-OV-3

Measured: GI50

Nc1nc(Cl)c(C=O)c(NCC2(CO)CCC2)n1
inactive: HCT-116 17.7 µM | RXF 393 17.8 µM | Hs-578T 22.2 µM | PC-3 17.7 µM | UACC-257 24.8 µM | ACHN 37.8 µM | HL-60 4.5 µM | SK-MEL-5 14.5 µM | BT-549 28.6 µM | LOX IMVI 12.4 µM | T47D 33.7 µM | DU-145 31.1 µM | Malme-3M 43.1 µM | KM12 43.1 µM | UO-31 21.8 µM | NCI-H460 31 µM | HT-29 31.4 µM | NCI-H522 3.56 µM | MOLT-4 18.3 µM | SK-OV-3 27.2 µM

Cc1c2cccc-2c(OCCO)cc2c1[nH]c1ccccc12
inactive: HCT-116 3.01 µM | RXF 393 2.37 µM | Hs-578T 1.67 µM | PC-3 2.72 µM | UACC-257 3.15 µM | ACHN 1.64 µM | HL-60 2.16 µM | SK-MEL-5 1.34 µM | BT-549 2.92 µM | LOX IMVI 1.95 µM | T47D 3.24 µM | DU-145 5.32 µM | Malme-3M 1.73 µM | KM12 2.58 µM | UO-31 1.5 µM | NCI-H460 3.61 µM | HT-29 3.52 µM | NCI-H522 1.83 µM | MOLT-4 2.99 µM | SK-OV-3 3.27 µM

O=C(Nc1sccc1S(=O)(=O)c1ccc(Cl)cc1)c1ccc(Cl)cc1
inactive: HCT-116 > 100 µM | RXF 393 65.6 µM | Hs-578T 51.3 µM | PC-3 25.9 µM | UACC-257 > 100 µM | ACHN 99.1 µM | HL-60 > 100 µM | SK-MEL-5 74.3 µM | BT-549 > 100 µM | LOX IMVI > 100 µM | T47D > 100 µM | DU-145 > 100 µM | Malme-3M 50.6 µM | KM12 > 100 µM | UO-31 86.3 µM | NCI-H460 56.5 µM | HT-29 > 100 µM | NCI-H522 > 100 µM | MOLT-4 > 100 µM | SK-OV-3 52.6 µM

Cc1cc(C)nc(NC(=S)Nc2ccccc2Cl)c1
inactive: HCT-116 > 100 µM | RXF 393 > 100 µM | Hs-578T > 100 µM | PC-3 > 100 µM | UACC-257 > 100 µM | HL-60 > 100 µM | SK-MEL-5 > 100 µM | BT-549 > 100 µM | LOX IMVI > 100 µM | T47D > 100 µM | DU-145 > 100 µM | Malme-3M > 100 µM | KM12 > 100 µM | UO-31 > 100 µM | NCI-H460 > 100 µM | HT-29 > 100 µM | NCI-H522 > 100 µM | MOLT-4 > 100 µM | SK-OV-3 > 100 µM

Ic1cccc(/C=C/CN2CCN(CCOC(c3ccccc3)c3ccccc3)CC2)c1
inactive: HCT-116 12.6 µM | RXF 393 10.7 µM | Hs-578T 28 µM | PC-3 17.5 µM | UACC-257 15.7 µM | ACHN 44.6 µM | HL-60 8.91 µM | SK-MEL-5 14.3 µM | BT-549 16.8 µM | LOX IMVI 13.2 µM | T47D 10.6 µM | DU-145 13.2 µM | Malme-3M 18.9 µM | KM12 14.9 µM | UO-31 13 µM | NCI-H460 11.3 µM | HT-29 6.47 µM | NCI-H522 16.1 µM | MOLT-4 5.32 µM | SK-OV-3 21.6 µM

N#Cc1ccnc(C(=O)N2CCCC2C(=O)O)c1 (centres undefined)
inactive: HCT-116 > 100 µM | RXF 393 > 100 µM | Hs-578T > 100 µM | PC-3 > 100 µM | UACC-257 > 100 µM | ACHN > 100 µM | HL-60 > 100 µM | SK-MEL-5 > 100 µM | BT-549 > 100 µM | LOX IMVI > 100 µM | T47D > 100 µM | DU-145 > 100 µM | Malme-3M > 100 µM | KM12 > 100 µM | UO-31 > 100 µM | NCI-H460 > 100 µM | HT-29 > 100 µM | NCI-H522 > 100 µM | MOLT-4 > 100 µM

O=C(c1ccccc1)c1ccc2[nH]c(-c3c(Cl)c(Cl)c(Cl)c(Cl)c3-c3nnc(-c4ccccc4)o3)nc2c1
inactive: HCT-116 27.4 µM | RXF 393 5.47 µM | Hs-578T 27.4 µM | PC-3 20.7 µM | UACC-257 80.2 µM | ACHN 69.7 µM | HL-60 11.5 µM | SK-MEL-5 6.7 µM | BT-549 46 µM | LOX IMVI 39.4 µM | T47D 23.9 µM | DU-145 70.5 µM | Malme-3M 17.9 µM | KM12 22.3 µM | UO-31 49.3 µM | HT-29 31.3 µM | NCI-H522 6.28 µM | MOLT-4 14.8 µM | SK-OV-3 50.8 µM

CC(=O)Nc1ccc(C(O)/C(=N/N)c2nc3ccc(Cl)cc3nc2O)cc1 (centres undefined)
inactive: HCT-116 > 100 µM | RXF 393 > 100 µM | Hs-578T > 100 µM | PC-3 > 100 µM | UACC-257 > 100 µM | ACHN > 100 µM | HL-60 > 100 µM | SK-MEL-5 > 100 µM | BT-549 > 100 µM | LOX IMVI > 100 µM | T47D > 100 µM | DU-145 > 100 µM | Malme-3M > 100 µM | KM12 > 100 µM | UO-31 > 100 µM | NCI-H460 > 100 µM | HT-29 > 100 µM | NCI-H522 > 100 µM | MOLT-4 > 100 µM

CC1(C)OC2C(O)C(CO)OC2(C(F)F)O1 (centres undefined)
inactive: HCT-116 > 100 µM | RXF 393 > 100 µM | Hs-578T > 100 µM | PC-3 > 100 µM | UACC-257 > 100 µM | HL-60 > 100 µM | SK-MEL-5 > 85.3 µM | BT-549 > 100 µM | LOX IMVI > 100 µM | T47D > 100 µM | DU-145 > 100 µM | Malme-3M > 100 µM | KM12 > 100 µM | UO-31 > 31.3 µM | NCI-H460 > 100 µM | HT-29 > 100 µM | NCI-H522 > 100 µM | MOLT-4 > 100 µM | SK-OV-3 > 100 µM

CCOC(=O)c1cc(C2=C(S)N(CC(C)CC)CC2)c(C(=O)CC)[nH]1 (centres undefined)
inactive: HCT-116 15.3 µM | RXF 393 20.7 µM | Hs-578T 26.9 µM | PC-3 19.7 µM | UACC-257 17.4 µM | ACHN 15.3 µM | HL-60 5.36 µM | BT-549 19.3 µM | LOX IMVI 17.4 µM | T47D 7.53 µM | DU-145 16.6 µM | Malme-3M 11.1 µM | KM12 16.9 µM | UO-31 16.8 µM | NCI-H460 20.6 µM | HT-29 22.4 µM | NCI-H522 14.9 µM | MOLT-4 4.56 µM | SK-OV-3 23.5 µM
